Experimental data reported in paper PMC5374206, “Anti-bacterial and Anti-biofilm Evaluation of Thiazolopyrimidinone Derivatives Targeting the Histidine Kinase YycG Protein of Staphylococcus epidermidis” (Frontiers in Microbiology, 2017).
In brackets after ≈: the same amount, converted by molar mass. Entries after “also recorded” stand apart in the source; their conditions may differ.

How the values were obtained:
[1] = tested on: S. epidermidis ATCC 35984 mature biofilms; assay: Cell viability in mature (24 h) biofilms by CLSM with Live/Dead staining; format: cell-based, Staphylococcus epidermidis; conditions: 4 × MIC, 16 h, 24 h mature biofilm; for PI fluorescence quantity (dead cells) / SYTO9 fluorescence quantity (viable cells): Image J
Description: The effect of the derivatives on cell viability in mature biofilms (24 h old) was determined using the Live/Dead Bacterial Viability method (Live/Dead BacLight, Molecular Probes, USA). […] The mature biofilms were stained with SYTO 9 and propidium iodide at room temperature for 15 min, following gentle washing of the dishes with normal saline, and were observed under a Leica TCS SP5 CLSM with a 63 × 1.4-NA oil-immersion objective. Further, image analysis was performed using IMARIS 7.0.0 software (Bitplane). The fluorescence quantities of biofilm were determined using Image J software. This assay was performed in triplicate and similar results were obtained.

[2] = tested on: S. epidermidis ATCC 35984 biofilm formation; assay: Flow-based biofilm inhibition assay (BioFlux); format: cell-based, Staphylococcus epidermidis; conditions: 2 × MIC; shear 0.15 dyn/cm^2; 16 h; result in words
Description: The microfluidic channels of BioFlux 48-well plates (Fluxion Biosciences, South San Francisco, CA, USA) were primed with pre-warmed (37°C) TSB medium from the outlet well at a shear setting of 2 dyn/cm^2 for 10 min. Overnight bacterial culture of S. epidermidis ATCC 35984 was subcultured to mid-log phase and then diluted 1:200 in MHB medium, bacteria were seeded from the outlet well into the channel and viewing window at a shear setting of 2 dyn/cm^2 for 3 s. […] Growth of the biofilms was monitored for up to 16 h. Images of different stages were automatically acquired at 10 min intervals with bright-field illumination.

[3] = target: T1, ArlS' protein (Staphylococcus epidermidis, UniProt Q5HPC4); assay: Inhibition of ArlS' autophosphorylation (Kinase-Glo Luminescent Kinase Assay); format: biochemical, S. epidermidis; conditions: for Inhibition of ArlS’ phosphorylation / Luminescence: 200 μM derivative, 2 μg purified protein, 4 μM ATP; for inhibitory effect on the autophosphorylation of ArlS': highest concentration 200 μM, result in words
T1 construct: made in house

[4] = target: T2, YycG′ protein (Staphylococcus epidermidis, UniProt Q5HK19); assay: Inhibition of YycG′ autophosphorylation (Kinase-Glo Luminescent Kinase Assay); format: biochemical; conditions: 4 μM ATP; for inhibition of the enzymatic activity of YycG′ protein: 100 μM derivative, 2 μg YycG′ protein; for IC50: Kinase-Glo, 2 μg YycG′, read-out: IC50 (inhibition of autophosphorylation of recombinant YycG′)
T2 construct: made in house; host or cells: E. coli BL21(DE3)
T2 sequence (Q5HK19 384-602 limits assumed): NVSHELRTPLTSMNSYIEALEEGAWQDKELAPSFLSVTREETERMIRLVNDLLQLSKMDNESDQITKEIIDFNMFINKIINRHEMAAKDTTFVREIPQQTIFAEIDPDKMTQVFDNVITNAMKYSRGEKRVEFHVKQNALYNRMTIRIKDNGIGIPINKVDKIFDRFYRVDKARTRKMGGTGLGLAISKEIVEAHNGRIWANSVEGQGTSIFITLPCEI
Description: The construction of the recombinant plasmid pET28a-YycG′ (containing the HATPase_c and HisKA domains of YycG) has been previously described (Liu et al., [2014]). After being used to transform E. coli strain BL21(DE3), this recombinant plasmid was induced to express YycG′ protein by 0.4 mM isopropyl-1-thio-β-D-galactopyranoside at 21°C for 12 h. Then, the bacterial cells were disrupted by sonication and centrifuged, the supernatant was purified by Ni–NTA agarose (Qiagen, Los Angeles, CA, USA). The inhibitory activities of the compound 5 derivatives on the ATPase activity of the YycG′ protein were measured using the Kinase-Glo™ Luminescent Kinase Assay (Promega, Madison, WI, USA). Briefly, 2 μg purified YycG′ protein was pre-incubated with a series of dilutions of the derivatives in reaction buffer [40 mM Tris (pH 7.5), 20 mM MgCl2 and 0.1 mg/ml BSA] at room temperature for 30 min, 4 μM ATP was added and incubated for 30 min at room temperature, then Kinase-Glo™ Reagent was added to detect the remaining amount of ATP, as reflected by luminescence intensity (RLU). In parallel, YycG′ protein with no addition of the derivatives was used as the control and ATP only was used as a blank. The rate of inhibition of protein phosphorylation (Rp) by the derivatives was calculated by the following equation: Rp = RLU(YycG^′+derivative+ATP+Kinase−Glo™)−RLU(YycG^′+ATP+Kinase−Glo™)/RLU(ATP+Kinase−Glo™)−RLU(YycG^′+ATP+Kinase−Glo™) × 100 IC50 (the concentration resulting in 50% inhibition of YycG′ protein autophosphorylation) was obtained by using Origin v7.0 software (OriginLab, Northampton, USA).

[5] = tested on: S. epidermidis ATCC 12228; assay: MIC tube-dilution assay; format: cell-based; conditions: Staphylococcus epidermidis, ATCC12228
Description: (§1) The MIC assays of the derivatives of compound 5 against S. epidermidis, S. aureus, MRSA and E. coli were performed by using the methods described previously by Wiegand et al. ([2008]). In brief, two-fold serial dilutions of the derivatives were prepared in tubes containing 4 mL MHB medium, yielding final concentrations from 200 to 0.78 μM. Bacterial cultures were grown overnight and adjusted so that the bacterial suspension turbidity was equivalent to a 0.5 McFarland standard (~1 × 10^8 CFU/mL) and further diluted to 1:200 into MHB medium. The contents in the tubes were mixed thoroughly and incubated at 37°C with shaking at 220 rpm for 16–20 h. The MIC endpoint was defined as the lowest concentration at which there was no visible growth in the tubes. The MBC values were assessed by plating 100 μL samples from each negative (no visible bacterial growth) culture tube from the MIC assays onto blank MHB agar plates. After incubation at 37°C for 24 h, the bacterial colonies on the plates were counted. The MBC was the concentration at which a 99.9% reduction of the original inoculum was observed (Pridmore et al., [2011]). In this assay, all the experiments were performed three times.

[6] = tested on: S. aureus ATCC 49230; assay: MIC tube-dilution assay; format: cell-based; conditions: Staphylococcus aureus, ATCC49230
Description: as §1

[7] = Aqueous solubility observation; format: physicochemical; conditions: 200 μM; precipitated after incubation at 37°C for 12 h; result in words

T1 sequence (Q5HPC4 240-456): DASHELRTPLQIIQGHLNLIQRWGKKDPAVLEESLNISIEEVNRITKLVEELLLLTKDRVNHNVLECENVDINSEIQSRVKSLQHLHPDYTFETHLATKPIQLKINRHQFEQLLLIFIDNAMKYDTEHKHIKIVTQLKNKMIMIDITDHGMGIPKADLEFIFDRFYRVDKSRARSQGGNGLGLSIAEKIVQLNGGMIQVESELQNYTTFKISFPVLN

SMILES	PI/Total (reduction of the proportion of viable cells in mature biofilms) [1] [%]	PI fluorescence quantity (dead cells) [1]	SYTO9 fluorescence quantity (viable cells) [1]	biofilm formation under shearing forces [2]	Inhibition of ArlS’ phosphorylation [3] [%]	Luminescence [3]	inhibitory effect on the autophosphorylation of ArlS' [3]	inhibition of the enzymatic activity of YycG′ protein [4] [%]	IC50 [4] [µM]	MIC [5] [µM]	MIC [6] [µM]	aqueous solubility [7]
O=C(O)c1cccc(-c2ccc(C=c3sc4n(c3=O)C(c3ccc(F)cc3)C=C(c3ccccc3)N=4)o2)c1 (stereo not drawn) [H5-33, 3-{5-[5-(4-fluoro-phenyl)-3-oxo-7-phenyl-5H-thiazolo [3,2-a]pyrimidin-2-ylidenemethyl]-furan-2-yl}-benzoic acid]	88.4	73.684 ± 5.56	9.669 ± 3.64	significant decrease in the biofilm formation; also recorded: strongly inhibited biofilm formation	-5.1	17786 + 382 RLU	None of them showed an inhibitory effect	77.04	64.9	3.13 (≈ 1.64 µg/mL)	3.13 (≈ 1.64 µg/mL)	
CCOC(=O)C1=C(c2ccccc2)N=c2sc(=Cc3ccc(-c4ccc(C(=O)O)cc4)o3)c(=O)n2C1c1ccc(Cl)cc1 (stereo not drawn) [H5-34, 2-[5-(4-carboxy-phenyl)-furan-2-ylmethylene]-5-(4-chloro-phenyl)-3-oxo-7-phenyl-2,3-dihydro-5H-thiazolo[3,2-a]pyrimidine-6-carboxylic acid ethyl ester]	38.80	39.578 ± 4.74	62.165 ± 6.71	significant decrease in the biofilm formation; also recorded: strongly inhibited biofilm formation	-5.6	17747 + 622 RLU	None of them showed an inhibitory effect	80.72	61.9	3.13 (≈ 1.91 µg/mL)	3.13 (≈ 1.91 µg/mL)	limited aqueous solubility
CCOC(=O)C1=C(c2ccccc2)N=c2sc(=Cc3ccc(-c4ccc(C(=O)O)cc4)o3)c(=O)n2C1c1ccc(F)cc1 (stereo not drawn) [H5-35, 2-[5-(4-carboxy-phenyl)-furan-2-ylmethylene]-5-(4-fluoro-phenyl)-3-oxo-7-phenyl-2,3-dihydro-5H-thiazolo[3,2-a]pyrimidine-6-carboxylic acid ethyl ester]	71.7	41.253 ± 5.31	16.283 ± 4.75	significant decrease in the biofilm formation; also recorded: strongly inhibited biofilm formation	-1.5	18075 + 285 RLU	None of them showed an inhibitory effect	63.94	78.2	3.13 (≈ 1.86 µg/mL)	6.25 (≈ 3.72 µg/mL)	limited aqueous solubility
CCOC(=O)C1=C(c2ccccc2)N=c2sc(=Cc3ccc(-c4cccc(C(=O)O)c4)o3)c(=O)n2C1c1ccc(F)cc1 (stereo not drawn) [H5-32, 2-[5-(3-carboxy-phenyl)-furan-2-ylmethylene]-5-(4-fluoro-phenyl)-3-oxo-7-phenyl-2,3-dihydro-5H-thiazolo[3,2-a]pyrimidine-6-carboxylic acid ethyl ester]	66.50	40.338 ± 5.03	20.321 ± 4.66	significant decrease in the biofilm formation; also recorded: strongly inhibited biofilm formation	-5.9		None of them showed an inhibitory effect	55.61	83.9	6.25 (≈ 3.72 µg/mL)	3.13 (≈ 1.86 µg/mL)	
